Results: patent US7119091B2, “Triazaspiro[5.5]undecane derivatives and pharmaceutical compositions comprising thereof, as an active ingredient” (Ono Pharmaceutical Co., Ltd., priority 1999, dated 2006)
pIC50: −log10 of the molar value. Counter-ions that a name gives are not always drawn.

Tests used:
[1] = target: human CCR5 stably over-expressing CHO cell (CCR5/CHO cell) (Homo sapiens, UniProt P51681); assay: Inhibition test on the binding of RANTES to CCR5 (RANTES-induced transient increase of Ca ion); format: cell-based; conditions: inhibition of Ca2+ transient increase induced by 10 nM recombinant human RANTES in CCR5/CHO cells
Procedure: (1) Isolation of Human CCR5 Gene
Human placental cDNA was prepared using Marathon cDNA amplification kit (Clontech). PCR primers hCCR5XbaI-F1: 5′-[sequence]-3′ (SEQ ID NO:1) and hCCR5XbaI-R1: 5′-[sequence]-3′ (SEQ ID NO:2) were designed based on the sequence of GenBank U54994.
Using the human placental cDNA as the template and using Ex Taq (Takara), PCR reaction (2 minutes at 95° C.→(30 seconds at 95° C., 45 seconds at 60° C., 1 minute at 72° C.)×35 times) was carried out. The thus amplified PCR product was subjected to a 1% agarose gel electrophoresis, purified using QIAquick Gel Extraction Kit (QUIAGEN) and then digested with a restriction enzyme XbaI. […] By preparing the resulting plasmid pEF-BOS-bsr/hCCR5, its DNA sequence was verified. […]
The thus established human CCR5 stably over-expressing CHO cell (CCR5/CHO cell) was suspended in Ham's F-12 medium containing FBS (10%) and dispensed in 3.0×10^6 cells/well portions into a 96 well plate. […] Transient increase in the intracellular Ca^2+ concentration induced by the human RANTES was measured using a Ca^2+ detector for 96 well use (Hamamatsu Photonics), and inhibition ratio (%) of the test compound was calculated by the following calculation formula. Inhibition ratio=(Ec−Ea)/Ec×100 • Ec: measured value of Ca^2+ transient increase by RANTES • Ea: measured value of Ca^2+ transient increase by RANTES when a test compound was added

[2] = target: T1, human CCR2-expressing cell, human monocyte cell strain THP-1 (Homo sapiens, UniProt P41597); assay: Inhibition test on the binding of MCP-1 to CCR2 (MCP-1-induced transient increase of Ca ion); format: cell-based; conditions: inhibition of Ca2+ transient increase induced by 30 nM recombinant human MCP-1 in THP-1 cells
T1 construct: A human CCR2-expressing cell, e.g., a human monocyte cell strain THP-1 (ATCC No. TIB-202); host or cells: THP-1
T1 sequence (P41597 1-360 isoform P41597-2): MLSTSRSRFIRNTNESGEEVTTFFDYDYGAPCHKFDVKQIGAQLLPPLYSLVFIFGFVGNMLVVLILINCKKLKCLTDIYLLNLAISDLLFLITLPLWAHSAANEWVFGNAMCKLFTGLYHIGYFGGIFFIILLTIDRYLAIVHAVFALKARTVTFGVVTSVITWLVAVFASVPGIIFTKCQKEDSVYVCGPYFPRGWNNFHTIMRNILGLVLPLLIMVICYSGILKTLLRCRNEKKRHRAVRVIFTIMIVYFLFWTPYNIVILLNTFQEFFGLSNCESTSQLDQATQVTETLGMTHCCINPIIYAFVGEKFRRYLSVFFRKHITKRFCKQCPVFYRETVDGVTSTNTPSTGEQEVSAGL
Excerpt: An assay system for finding a compound having adsorption inhibition effect on CCR5 directional HIV strain was described in the foregoing, and it is possible as a matter of course to find a compound capable of inhibiting the activity of CCR5 or a ligand thereof using this system. In the same manner, it is possible to find a compound capable of inhibiting the activity of other chemokine receptor or a ligand thereof. For example, a system for finding a compound capable of inhibiting the activity of CCR2 or a ligand thereof can be constructed. […]
A human CCR2-expressing cell, e.g., a human monocyte cell strain THP-1 (ATCC No. TIB-202), was suspended in RPMI 1640 medium containing FBS (10%), Fura-2AM (5 μM), Probenecid (2.5 mM) and HEPES (20 mM, pH 7.4) to a density of 5.0×10^6 cells/ml and incubated at 37° C. for 30 minutes under shaded condition. […] Transient increase in the intracellular Ca 2+concentration induced by the human MCP-1 was measured using a Ca^2+ detector for 96 well use (Hamamatsu Photonics), and inhibition ratio (%) of the test compound was calculated by the following calculation formula. Inhibition ratio=(Ec−Ea)/Ec×100 • Ec: measured value of Ca^2+ transient increase by MCP-1 • Ea: measured value of Ca^2+ transient increase by MCP-1 when a test compound was added

Chain of human CCR5 stably over-expressing CHO cell (CCR5/CHO cell) (P51681 whole entry): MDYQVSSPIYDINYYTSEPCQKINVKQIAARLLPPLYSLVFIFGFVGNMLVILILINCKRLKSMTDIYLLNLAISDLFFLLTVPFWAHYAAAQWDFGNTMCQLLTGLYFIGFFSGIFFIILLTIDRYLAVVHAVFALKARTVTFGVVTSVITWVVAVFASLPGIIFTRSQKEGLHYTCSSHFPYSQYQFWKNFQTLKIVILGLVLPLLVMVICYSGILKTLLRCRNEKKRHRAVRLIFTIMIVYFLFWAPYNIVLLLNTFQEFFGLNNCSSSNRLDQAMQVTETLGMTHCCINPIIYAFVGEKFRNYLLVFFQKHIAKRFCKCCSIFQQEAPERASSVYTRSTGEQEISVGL

Row | Structure (SMILES) | pIC50 [1] | pIC50 [2]
1 | CCCCN1C(=O)C(CC2CCCCC2)NC(=O)C12CCN(Cc1ccc3c(c1)OCCO3)CC2 (stereo not drawn) [Example 2(1), 9-(1,4-benzodioxan-6-ylmethyl)-1-butyl-3-cyclohexylmethyl-2,5-dioxo-1,4,9-triazaspiro[5.5]undecane.hydrochloride] | 7.30 | –
2 | CCCN1C(=O)[C@H](CCCCNC(=O)OCc2ccccc2)NC(=O)C12CCN(CCc1ccccc1)CC2 [Example 5(2), (3S)-1-propyl-2,5-dioxo-3-(4-(N-benzyloxycarbonyl)aminobutyl)-9-(2-phenylethyl)-1,4,9-triazaspiro[5.5]undecane.hydrochloride] | – | 5.52
3 | CCCCN1C(=O)C(CC2CCCCC2)NC(=O)C12CCN(Cc1c[nH]c(-c3ccccc3)n1)CC2 (stereo not drawn) [Example 2(2), 1-butyl-3-cyclohexylmethyl-2,5-dioxo-9-(2-phenylimidazol-4-ylmethyl)-1,4,9-triazaspiro[5.5]undecane.2 hydrochloride] | 7.30 | –
